Test results as given in article PMC7984888, “Inhibitory Activity of Pyrroloisoxazolidine Derivatives against Chlamydia trachomatis” (BioMed Research International, 2021).

System: C. trachomatis L2
Experiment: Host cell pretreatment assay
Assay type: cell-based, Chlamydia trachomatis
Settings: 2, 8 and 32 μM, 37°C, 1 h (also 4 h) prior to infection
Experimental: Cells seeded in 48-well plate were incubated with 2, 8, or 32 μM individual compound at 37°C for indicated times. After twice washing with SPG to remove residual compound, cells were infected with EBs at an MOI of 0.2. At 36 hpi, the inclusion count in each well was determined by immunofluorescence staining as above.
Chlamydia trachomatis has a unique EB/RB biphasic life cycle, which offers the infection steps and the intracellular proliferation period for therapeutic intervention. To explore whether the compounds affected the chlamydial infection steps, the HeLa cells or EBs were pretreated with compound prior to infection, and then the influence on EB entry efficiency was analyzed by counting inclusion numbers. Due to the relative easier for culture and shorter developmental cycle, C. trachomatis L2 is commonly represented as a laboratory model for C. trachomatis in cell culture research and is picked for our subsequent mechanism study.
Figure 3 Host cells were not involved in the compounds' antichlamydial activity. HeLa cells were incubated with 2, 8, or 32 μM compound 1 (a) or 2 (b) at 37°C for 1 or 4 h. After washes, cells were infected with EBs. At 36 hpi, the inclusion was counted as described in “Materials and Methods.” Data are presented as mean ± SD of three independent assays.

Compound	Formation of chlamydial inclusions after pretreatment of HeLa cells
c1ccc(C2C3CC(c4ccccc4)N(c4ccccc4)C3ON2c2ccccc2)cc1 (centres unmarked) [Compound 1]	did not reduce
Clc1ccc(N2C(c3ccccc3)CC3C(c4ccccc4)N(c4ccccc4)OC32)cc1 (centres unmarked) [Compound 2]	did not reduce
